Assays:
TLR8 = molecular target: T1, TLR8 (Homo sapiens, UniProt Q9NR97); assay: TLR8 human PBMC cell-based assay (antagonist, Compound A stimulated cytokine release); settings: human PBMCs; TLR8 agonist Compound A 800 nM, 6 hours; cytokines (TNFa and IL 12p40) in supernatant; read-out: TLR-8 EC50
T1 construct: Human peripheral blood mononuclear cells (PBMCs) consist of lymphocytes, monocytes and dendritic cells that express TLR7, TLR8 and TLR9; endogenous in cells; host or cells: cryopreserved human PBMCs from healthy donors
T1 sequence (Q9NR97 27-1041): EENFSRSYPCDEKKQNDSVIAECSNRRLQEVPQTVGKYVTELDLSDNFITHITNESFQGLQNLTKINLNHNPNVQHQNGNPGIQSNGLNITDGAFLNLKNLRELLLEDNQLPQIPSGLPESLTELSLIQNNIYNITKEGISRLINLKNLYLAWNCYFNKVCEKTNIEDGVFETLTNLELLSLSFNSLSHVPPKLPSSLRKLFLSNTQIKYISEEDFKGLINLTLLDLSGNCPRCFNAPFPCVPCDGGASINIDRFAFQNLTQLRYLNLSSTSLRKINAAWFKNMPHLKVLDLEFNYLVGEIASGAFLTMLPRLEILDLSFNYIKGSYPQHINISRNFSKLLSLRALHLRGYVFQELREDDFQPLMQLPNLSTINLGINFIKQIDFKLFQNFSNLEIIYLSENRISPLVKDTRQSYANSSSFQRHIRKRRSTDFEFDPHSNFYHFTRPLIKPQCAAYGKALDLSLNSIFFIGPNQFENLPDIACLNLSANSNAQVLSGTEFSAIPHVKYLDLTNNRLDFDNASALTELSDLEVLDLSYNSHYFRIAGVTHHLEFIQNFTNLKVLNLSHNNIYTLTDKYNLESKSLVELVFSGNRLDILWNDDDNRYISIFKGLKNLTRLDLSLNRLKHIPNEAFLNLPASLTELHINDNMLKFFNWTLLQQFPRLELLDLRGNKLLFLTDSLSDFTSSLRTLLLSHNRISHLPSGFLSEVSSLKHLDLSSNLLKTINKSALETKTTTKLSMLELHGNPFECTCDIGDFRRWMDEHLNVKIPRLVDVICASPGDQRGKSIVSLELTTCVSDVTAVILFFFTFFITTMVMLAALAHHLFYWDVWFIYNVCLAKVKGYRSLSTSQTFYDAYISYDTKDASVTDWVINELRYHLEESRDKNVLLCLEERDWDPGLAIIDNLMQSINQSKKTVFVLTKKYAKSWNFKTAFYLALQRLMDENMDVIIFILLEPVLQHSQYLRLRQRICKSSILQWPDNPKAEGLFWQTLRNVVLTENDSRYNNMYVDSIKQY
Method in brief: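 Cryopreserved donor PBMCs (100,000/well, RPMI + 10% FBS) were preincubated 1 h with antagonist (10-point dose response, quadruplicate), then stimulated with Compound A (800 nM final) for 6 h at 37 °C. TNFa and IL-12p40 in supernatants were measured by electrochemiluminescence; sigmoidal fits gave EC50.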

TLR7 = molecular target: T2, TLR7 (Homo sapiens, UniProt Q9NYK1); assay: TLR7 human PBMC cell-based assay (antagonist, GS-986 stimulated cytokine release); settings: human PBMCs; TLR7 agonist GS-986 400 nM, 6 hours; cytokines (IL-6 and IFNα) in supernatant; read-out: TLR-7 EC50
T2 construct: Human peripheral blood mononuclear cells (PBMCs) consist of lymphocytes, monocytes and dendritic cells that express TLR7, TLR8 and TLR9; endogenous in cells; host or cells: cryopreserved human PBMCs from healthy donors
T2 sequence (Q9NYK1 27-1049): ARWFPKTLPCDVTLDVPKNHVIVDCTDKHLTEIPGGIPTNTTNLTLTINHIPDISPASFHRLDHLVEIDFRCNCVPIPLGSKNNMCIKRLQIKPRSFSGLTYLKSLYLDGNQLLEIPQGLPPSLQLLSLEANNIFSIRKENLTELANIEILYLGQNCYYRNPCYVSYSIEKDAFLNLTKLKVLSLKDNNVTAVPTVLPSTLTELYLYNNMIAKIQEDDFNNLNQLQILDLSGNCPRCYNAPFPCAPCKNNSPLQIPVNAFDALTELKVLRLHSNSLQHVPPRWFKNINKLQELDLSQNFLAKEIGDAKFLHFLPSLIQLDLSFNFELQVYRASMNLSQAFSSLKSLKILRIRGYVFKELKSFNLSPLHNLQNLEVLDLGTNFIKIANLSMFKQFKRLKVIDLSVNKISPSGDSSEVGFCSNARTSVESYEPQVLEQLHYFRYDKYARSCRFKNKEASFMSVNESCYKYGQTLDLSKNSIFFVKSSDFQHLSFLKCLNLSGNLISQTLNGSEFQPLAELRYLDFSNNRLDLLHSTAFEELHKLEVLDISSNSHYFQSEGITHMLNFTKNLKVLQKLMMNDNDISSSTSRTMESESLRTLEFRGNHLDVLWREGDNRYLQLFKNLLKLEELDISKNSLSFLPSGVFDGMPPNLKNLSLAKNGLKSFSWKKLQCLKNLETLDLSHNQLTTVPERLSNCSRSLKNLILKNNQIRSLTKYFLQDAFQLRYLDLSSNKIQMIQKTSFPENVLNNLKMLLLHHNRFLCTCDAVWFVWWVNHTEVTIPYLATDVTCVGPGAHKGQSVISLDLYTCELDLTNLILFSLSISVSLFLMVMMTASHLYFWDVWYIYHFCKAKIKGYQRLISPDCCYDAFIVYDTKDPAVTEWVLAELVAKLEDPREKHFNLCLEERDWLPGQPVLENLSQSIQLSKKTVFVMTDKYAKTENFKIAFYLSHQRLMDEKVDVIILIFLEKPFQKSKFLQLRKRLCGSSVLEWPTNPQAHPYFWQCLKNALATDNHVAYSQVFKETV
Method in brief: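 EC50 derived by sigmoidal fitting of IL-6 and IFNα levels, quantified by electrochemiluminescence in supernatants of human PBMCs given 400 nM GS-986 for 6 h. Cells (100,000/well in RPMI-1640, 10% FBS) had received test antagonist 1 h beforehand, 10 doses in quadruplicate, at 37 °C.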

| EC50 (TLR8) [nM] | EC50 (TLR7) [nM] | Structure (SMILES) |
| --- | --- | --- |
| 19.8 | 24.8 | Cc1cc(-c2[nH]c3cc(C(=O)N4CCNCC4)sc3c2C(C)C)cc(C)n1 [Example 1, [5-(2,6-dimethyl-4-pyridyl)-6-isopropyl-4H-thieno[3,2-b]pyrrol-2-yl]-piperazin-1-yl-methanone] |
| 19.9 | 0.7 | Cc1cc(-c2[nH]c3cc(C4CCC5(CC4)CN(C(=O)[C@H]4CCCN4C)C5)sc3c2C(C)C)cn2ncnc12 [Example 207] |
| 4.6 | 34.9 | Cc1cc(-c2[nH]c3cc(-c4cnn5c4CNCC5)sc3c2C(C)C)cn2ncnc12 [Example 219] |
| 37.5 | 1.2 | Cc1cc(-c2[nH]c3cc(C4CCCC5(CNC5)C4)sc3c2C(C)C)cn2ncnc12 (stereo not drawn) [Example 159] |
| > 1000 | 822 | CC(C)c1c(-c2ccn3ccnc3c2)[nH]c2cc(C(=O)N3CCNCC3)sc12 [Example 68] |
| 1.2 | 2.1 | Cc1c(-c2[nH]c3cc(C(=O)N4CCNCC4)sc3c2C(C)C)cn2ncnc2c1C [Example 32] |
| 15.6 | 0.7 | CCc1c(-c2cc(C)c3ncnn3c2)[nH]c2cc(C(=O)N(C)C3CCNCC3)sc12 [Example 63] |
| 6.1 | 0.4 | Cc1cc(-c2[nH]c3cc(C(=O)C4CCNCC4)sc3c2C(C)C)cn2ncnc12 [Example 277, (6-isopropyl-5-(8-methyl-[1,2,4]triazolo[1,5-a]pyridin-6-yl)-4H-thieno[3,2-b]pyrrol-2-yl)(piperidin-4-yl)methanone] |
| 5.93 | 0.19 | Cc1cc(-c2[nH]c3cc(C4CC5CN(CC(N)=O)CC5C4)sc3c2C(C)C)cn2ncnc12 (stereo not drawn) [Example 289] |
| 10.5 | 2.8 | Cc1cc(-c2[nH]c3cc(C(=O)N4CCNC[C@@H]4C)sc3c2C(C)C)cn2ncnc12 [Example 149] |
| 0.7 | 3.1 | Cc1c(-c2[nH]c3cc(-c4cnc5c(c4)CNCC5)sc3c2C(C)C)cn2ncnc2c1C [Example 222] |
| 7.1 | 0.4 | Cc1cc(-c2[nH]c3cc(C4CCC5(CC4)CNC5)sc3c2C(C)C)cn2ncnc12 [Example 160] |
| 2.6 | 6.4 | Cc1cc(-c2[nH]c3cc(C(=O)N4CCN(C)CC4)sc3c2C(C)C)cn2ncnc12 [Example 43] |
| 3.8 | 0.1 | Cc1cc(-c2[nH]c3cc(-c4nc(C5CCNCC5)no4)sc3c2C(C)C)cn2ncnc12 [Example 46, 5-(6-isopropyl-5-(8-methyl-[1,2,4]triazolo[1,5-a]pyridin-6-yl)-4H-thieno[3,2-b]pyrrol-2-yl)-3-(piperidin-4-yl)-1,2,4-oxadiazole] |
| 7.51 | 2.89 | Cc1cc(-c2[nH]c3cc(C4CCC5(CCN(CC(N)=O)C5)C4)sc3c2C(C)C)cn2ncnc12 (stereo not drawn) [Example 280] |
| 3.1 | 1.7 | Cc1c(-c2[nH]c3cc(-c4ccc(N5CCNCC5)cc4)sc3c2C(C)C)cn2ncnc2c1C [Example 231] |
| 0.5 | 2.4 | Cc1cc(-c2[nH]c3cc(-c4cnc5c(c4)CN(CCO)CC5)sc3c2C(C)C)cn2ncnc12 [Example 190] |

| EC50 (TLR8) [nM] | EC50 (TLR7) [nM] | Structure (SMILES) |
| --- | --- | --- |
| 4.8 | 37.5 | Cc1c(-c2[nH]c3cc(CN4CCC(O)(C(F)(F)F)CC4)sc3c2C(C)C)cn2ncnc2c1C [Example 267] |
| 25.8 | 0.3 | Cc1cc(-c2[nH]c3cc(C(=O)N4C[C@@H](N)CC[C@H]4C)sc3c2C(C)C)cn2ncnc12 [Example 96] |
| 19.4 | 13 | Cc1cc(-c2[nH]c3cc(C(=O)N4CCC5(CCNCC5)C4)sc3c2C(C)C)cn2ncnc12 [Example 120] |
| 22.2 | 6.5 | Cc1cc(-c2[nH]c3cc(C(=O)N4CCC5(CCN(CC(N)=O)CC5)C4)sc3c2C(C)C)cn2ncnc12 [Example 176] |
| 23.8 | 1.5 | Cc1cc(-c2[nH]c3cc(C4CCN(C(=O)C5CNC5)CC4)sc3c2C(C)C)cn2ncnc12 [Example 202] |
| 9 | 1.2 | Cc1cc(-c2[nH]c3cc(C(=O)N4CCC5(CCNC5)CC4)sc3c2C(C)C)cn2ncnc12 [Example 121] |
| 70.7 | 360 | CCN1C[C@@H](N(C)C(=O)c2cc3[nH]c(-c4cn5ncnc5c(C)c4C)c(C(C)C)c3s2)C[C@@H](C(F)(F)F)C1 [Example 274, 5-(7,8-dimethyl-[1,2,4]triazolo[1,5-a]pyridin-6-yl)-N-((3S,5R)-1-ethyl-5-(trifluoromethyl)piperidin-3-yl)-6-isopropyl-N-methyl-4H-thieno[3,2-b]pyrrole-2-carboxamide] |
| 586 | 311 | Cc1cc(-c2[nH]c3cc(C(=O)N4CCC5(CCNC5)C4)sc3c2C(C)C)cc(C)n1 (stereo not drawn) [Example 14] |
| 35.6 | 9 | Cc1cc(-c2[nH]c3cc(C(=O)N(C)[C@H]4CNC[C@@H](C(F)(F)F)C4)sc3c2C(C)C)cn2ncnc12 [Example 275] |
| 2.06 | 0.5 | Cc1cc(-c2[nH]c3cc(C4CC5(CCN(CC(N)=O)CC5)C4)sc3c2C(C)C)cn2ncnc12 [Example 304] |
| 1.4 | 0.4 | COc1cc(-c2[nH]c3cc(-c4cnn(C5CCNCC5)c4)sc3c2C(C)C)cn2ncnc12 [Example 233] |
| 72.9 | 60 | Cc1cc(-c2[nH]c3cc(C(=O)N4C5CNCC4COC5)sc3c2C(C)C)cc(C)n1 [Example 15] |
| 4.1 | 0.8 | Cc1cc(-c2[nH]c3cc(C(=O)N4CCC5(CCN(CC(N)=O)C5)CC4)sc3c2C(C)C)cn2ncnc12 [Example 175] |
| 3.1 | 2.1 | Cc1cc(-c2[nH]c3cc(C4CCN(CC5(C)COC5)CC4)sc3c2C(C)C)cn2ncnc12 [Example 186, 6-isopropyl-5-(8-methyl-[1,2,4]triazolo[1,5-a]pyridin-6-yl)-2-(1-((3-methyloxetan-3-yl)methyl)piperidin-4-yl)-4H-thieno[3,2-b]pyrrole] |
| 172 | > 1000 | Cc1c(-c2[nH]c3cc(C4CCN(CC(N)=O)CC4)sc3c2C(C)C)ccc2nn(C)c(=O)n12 [Example 286] |
| 72 | 146 | CCc1c(-c2cc(C)c3ncnn3c2)[nH]c2cc(-c3nc4ccc(N5CCN(CC(N)=O)CC5)cc4[nH]3)sc12 [Example 169] |
